Results published in ChEMBL document CHEMBL1146936, “Synthesis and evaluation of arylaminoethyl amides as noncovalent inhibitors of cathepsin S. Part 3: heterocyclic P3” (Bioorg Med Chem Lett, 2006).

Legend:
[1] = Oral bioavailability in Wistar rat at 10 mg/kg, po; assay type: ADME, organism-based; conditions: in vivo
[2] = AUC in Wistar rat at 10 mg/kg, po; assay type: ADME, organism-based; parameters: dose 10 mg/kg, route oral; conditions: plasma
Rattus norvegicus = test: Plasma concentration in Wistar rat at 10 mg/kg, po; assay type: ADME, organism-based; parameters: dose 10 mg/kg, route oral; conditions: in vivo
[3] = Clearance in Wistar rat at 3 mg/kg, iv; assay type: ADME, organism-based; parameters: dose 3 mg/kg, route intravenous; conditions: in vivo
[4] = Cmax in Wistar rat at 10 mg/kg, po; assay type: ADME, organism-based; parameters: dose 10 mg/kg, route oral; conditions: in vivo
[5] = Half life in Wistar rat at 3 mg/kg, iv; assay type: ADME, organism-based; parameters: dose 3 mg/kg, route intravenous; conditions: in vivo
Liver microsomes = test: Metabolic stability in Wistar rat liver microsome; assay type: ADME
[6] = Half life in Wistar rat at 10 mg/kg, po; assay type: ADME, organism-based; parameters: dose 10 mg/kg, route oral; conditions: in vivo
[7] = Volume of distribution in Wistar rat at 3 mg/kg, iv; assay type: ADME, organism-based; parameters: dose 3 mg/kg, route intravenous; conditions: in vivo, read-out: Vss

bioavailability [1]	AUC [2]	Cp (Rattus norvegicus)	clearance [3]	Cmax [4]	half-life [5]	Stability (Liver microsomes)	half-life [6]	Vd [7]	concentration (Rattus norvegicus)	Compound
< 1%	15 ng·h/mL	Not Active	11.4 mL/min/kg	12 nM	4.8 h	< 5%	5.3 h	1.63 L/kg	–	COc1ccc(NCCNC(=O)[C@H](CC2CCCCC2)Nc2nc3ccccc3o2)cc1
–	–	–	23.2 mL/min/kg	–	1 h	–	–	0.74 L/kg	> 1000 nM	O=C(O)C[C@@H](CN1CCc2cc(F)ccc21)NC(=O)[C@H](CC1CCCCC1)Nc1nc2ccc(Cl)cc2o1
22%	1580 ng·h/mL	Not Active	–	1100 nM	–	–	1 h	–	–	CCOC(=O)C[C@@H](CN1CCc2cc(F)ccc21)NC(=O)[C@H](CC1CCCCC1)Nc1nc2ccc(Cl)cc2o1

Second part, the molecule before the results:

Compound	bioavailability [1]	AUC [2]	Cp (Rattus norvegicus)	clearance [3]	Cmax [4]	half-life [5]	Stability (Liver microsomes)	half-life [6]	Vd [7]	concentration (Rattus norvegicus)
C[C@@H](CN1CC(C)(C)c2cc(F)ccc21)NC(=O)[C@H](CC1CCCCC1)Nc1nc2cccc(Cl)c2o1	15%	2400 ng·h/mL	–	10.1 mL/min/kg	1260 nM	8.3 h	–	5.1 h	0.9 L/kg	–
C[C@@H](CN1c2ccc(F)cc2CC1(C)C)NC(=O)[C@H](CC1CCCCC1)Nc1nc2cccc(Cl)c2o1	–	900 ng·h/mL	–	–	–	–	–	4.1 h	–	–
C[C@@H](CN1CCc2cc(F)ccc21)NC(=O)[C@H](CC1CCCCC1)Nc1nc2cccc(Cl)c2o1	24%	1080 ng·h/mL	–	33.1 mL/min/kg	703 nM	2.3 h	–	1.1 h	2.57 L/kg	–
